Values quoted from earlier work, collected in US11878910B2, “Ph-based structural change of water soluble carbon nanoparticles for encapsulation and release of therapeutic agents in biological systems” (SINON THERAPEUTICS INC., priority 2015, dated 2024).

C1=Cc2nc1c(-c1ccccc1)c1nc(c(-c3ccccc3)c3ccc([nH]3)c(-c3ccccc3)c3ccc([nH]3)c2-c2ccccc2)C=C1 [TPP, tetraphenylporphyrin]
solubility in water: insoluble
